Test results as given in PubChem BioAssay AID1259407 (Chemical Carcinogenesis Research Information System (CCRIS), 2018).
Calls of active or inactive are those of the source. How the calls were made is not given here.

Test system: CCRIS mutagenicity, Ames/micronucleus/aberration tests
Assay: CCRIS mutagenicity studies

In the case of `C=CC1CO1` (configuration not stated), the mutagenic call (End Point: IN VIVO CHROMOSOMAL ABERRATIONS, Test System: BONE MARROW CELLS, Species: MOUSE, Strain/Sex: C57B1/6/MALE, Route: IP INJECTION (ONCE)) is reported as “active; positive”, the mutagenic call (End Point: IN VIVO MICRONUCLEUS, Test System: BONE MARROW POLYCHROMATIC ERYTHROCYTES, Species: MOUSE, Strain/Sex: C57/BL/MALE, Route: INTRAPERITONEAL INJECTION) is reported as “active; positive” and the mutagenic call (End Point: IN VIVO MICRONUCLEUS, Test System: PERIPHERAL BLOOD RETICULOCYTES, Species: MOUSE, Strain/Sex: BALB/C/MALE, Route: IP INJECTION, ONCE) is reported as “active; positive”. For the same molecule, the mutagenic call (End Point: IN VIVO MICRONUCLEUS, Test System: SPERMATID, Species: RAT, Strain/Sex: SPRAGUE-DAWLEY/MALE, Route: IP INJECTION) was “active; positive”, the mutagenic call (End Point: IN VIVO MICRONUCLEUS, Test System: SPERMATIDS, Species: MOUSE, Strain/Sex: (102XC3H)F1/MALE, Route: IP INJECTION) was “active; positive only at 14 d and higher dose levels” and the mutagenic call (End Point: IN VIVO MICRONUCLEUS, Test System: SPERMATIDS, Species: MOUSE, Strain/Sex: BALB/C/MALE, Route: IP INJECTION, ONCE) was “active; positive (positive in golgi-phase and at highest dose after 14 or 16 d)”. For the same molecule, the mutagenic call (End Point: IN VIVO MICRONUCLEUS, Test System: SPERMATIDS, Species: RAT, Strain/Sex: LEWIS/MALE, Route: IP INJECTION) was “active; positive”, the mutagenic call (End Point: IN VIVO MICRONUCLEUS, Test System: SPLENOCYTES, Species: MOUSE, Strain/Sex: (102XC3H)F1/MALE, Route: IP INJECTION) was “active; positive” and the mutagenic call (End Point: IN VIVO MICRONUCLEUS, Test System: SPLENOCYTES, Species: MOUSE, Strain/Sex: BALB/C, Route: IP) was “active; positive only for 48.8 mg dose at either 2 or 16 d after treatment”. The mutagenic call (End Point: IN VIVO MICRONUCLEUS, Test System: SPLENOCYTES, Species: RAT, Strain/Sex: LEWIS/MALE, Route: IP INJECTION) was “active; positive”, the mutagenic call (Test System: AMES SALMONELLA TYPHIMURIUM, Strain/Indicator: TA98, Metabolic Activation: NONE, Method: STANDARD PLATE) was “inactive; negative” and the mutagenic call (Test System: AMES SALMONELLA TYPHIMURIUM, Strain/Indicator: TA100, Metabolic Activation: HAMSTER, LIVER, S-9, AROCLOR 1254 (10%), Method: PREINCUBATION) was “active; positive”. The mutagenic call (Test System: AMES SALMONELLA TYPHIMURIUM, Strain/Indicator: TA100, Metabolic Activation: NONE, Method: PREINCUBATION) was “active; positive”, the mutagenic call (Test System: AMES SALMONELLA TYPHIMURIUM, Strain/Indicator: TA100, Metabolic Activation: NONE, Method: STANDARD PLATE) was “active; positive” and the mutagenic call (Test System: AMES SALMONELLA TYPHIMURIUM, Strain/Indicator: TA100, Metabolic Activation: RAT, LIVER, S-9, AROCLOR 1254 (10%), Method: PREINCUBATION) was “active; positive”. For the same molecule, the mutagenic call (Test System: AMES SALMONELLA TYPHIMURIUM, Strain/Indicator: TA100, Metabolic Activation: RAT, LIVER, S-9, AROCLOR 1254, Method: STANDARD PLATE) was “active; positive”, the mutagenic call (Test System: AMES SALMONELLA TYPHIMURIUM, Strain/Indicator: TA1535, Metabolic Activation: HAMSTER, LIVER, S-9, AROCLOR 1254 (10%), Method: PREINCUBATION) was “active; positive” and the mutagenic call (Test System: AMES SALMONELLA TYPHIMURIUM, Strain/Indicator: TA1535, Metabolic Activation: NONE, Method: PREINCUBATION) was “active; positive”. The mutagenic call (Test System: AMES SALMONELLA TYPHIMURIUM, Strain/Indicator: TA1535, Metabolic Activation: NONE, Method: STANDARD PLATE) was “active; positive”, the mutagenic call (Test System: AMES SALMONELLA TYPHIMURIUM, Strain/Indicator: TA1535, Metabolic Activation: RAT, LIVER, S-9, AROCLOR 1254 (10%), Method: PREINCUBATION) was “active; positive” and the mutagenic call (Test System: UDS MOUSE SPERM CELL, Strain/Indicator: THY INCORP, Metabolic Activation: IN VIVO, Method: LIQUID SCINTILLATION COUNTING) was “inactive; negative”. For the same molecule, the mutagenic call (Test System: UDS RODENT HEPATOCYTES, Strain/Indicator: THY INCORP (NON-S-PHASE), Metabolic Activation: NONE, Method: AUTORADIOGRAPHY) was “inactive; negative”.

With `OCCOc1ccccc1` the mutagenic call (Test System: Ames Salmonella typhimurium, Strain/Indicator: TA98, Metabolic Activation: None, Method: Preincubation) was “inactive; negative”, the mutagenic call (Test System: Ames Salmonella typhimurium, Strain/Indicator: TA98, Metabolic Activation: Rat, Liver, S-9, Phenobarbital and 5,6-benzoflavone, Method: Preincubation) was “inactive; negative” and the mutagenic call (Test System: Ames Salmonella typhimurium, Strain/Indicator: TA100, Metabolic Activation: None, Method: Preincubation) was “inactive; negative”. The mutagenic call (Test System: Ames Salmonella typhimurium, Strain/Indicator: TA100, Metabolic Activation: Rat, Liver, S-9, Phenobarbital and 5,6-benzoflavone, Method: Preincubation) was “inactive; negative”, the mutagenic call (Test System: Ames Salmonella typhimurium, Strain/Indicator: TA1535, Metabolic Activation: None, Method: Preincubation) was “inactive; negative” and the mutagenic call (Test System: Ames Salmonella typhimurium, Strain/Indicator: TA1535, Metabolic Activation: Rat, Liver, S-9, Phenobarbital and 5,6-benzoflavone, Method: Preincubation) was “inactive; negative”. The mutagenic call (Test System: Ames Salmonella typhimurium, Strain/Indicator: TA1537, Metabolic Activation: None, Method: Preincubation) was “inactive; negative”, the mutagenic call (Test System: Ames Salmonella typhimurium, Strain/Indicator: TA1537, Metabolic Activation: Rat, Liver, S-9, Phenobarbital and 5,6-benzoflavone, Method: Preincubation) was “inactive; negative” and the mutagenic call (Test System: E. coli, Strain/Indicator: WP2uvrA/pKM101, Metabolic Activation: None, Method: Preincubation) was “inactive; negative”. The mutagenic call (Test System: E. coli, Strain/Indicator: WP2uvrA/pKM101, Metabolic Activation: Rat, Liver, S-9, Phenobarbital and 5,6-benzoflavone, Method: Preincubation) was “inactive; negative”.
